Test results from patent US20090163523A1, “Combinations comprising a s1p receptor agonist and a jak3 kinase inhibitor” (priority 2004, published 2009).
Values after ≈ are worked out from the molar mass of the structure shown.

Tested on: donor heart graft
Assay: Rat heart transplantation, graft survival
Assay type: in vivo
Conditions: 672 h; rat heart transplant; blood concentration; read-out: EC50 (drug concentration in blood at which 50% of the animals maintain their graft for >28 days)
Protocol: The aorta is ligated and divided distal to the first branch and the brachiocephalic trunk is divided at the first bifurcation. The left pulmonary artery is ligated and divided and the right side divided but left open. All other vessels are dissected free, ligated and divided and the donor heart is removed into iced saline.
The recipient is prepared by dissection and cross-clamping of the infra-renal abdominal aorta and vena cava. The graft is implanted with end-to-side anastomoses, using 10/0 monofilament suture, between the donor brachiocephalic trunk and the recipient aorta and the donor right pulmonary artery to the recipient vena cava. The clamps are removed, the graft tethered retroabdominally, the abdominal contents washed with warm saline and the animal is closed and allowed to recover under a heating lamp. Graft survival is monitored by daily palpation of the beating donor heart through the abdominal wall. Rejection is considered to be complete when heart beat stops.

Compound: C[C@@H]1CCN(C(=O)CC#N)C[C@@H]1N(C)c1ncnc2[nH]ccc12 [CP-690,550 mono-citrate, 3-{(3R,4R)-4-methyl-3-[methyl-(7H-pyrrolo[2,3-d]pyrimidin-4-yl)-amino]-piperidin-1-yl}-3-oxo-propionitrile]
- EC50: 0.06 µg/mL (≈ 0.192 µM)
